What was measured:
[1] = molecular target: T1, PDGFRBETA (Homo sapiens, UniProt P09619); experiment: Millipore kinase panel; assay type: biochemical; settings: read-out: % Control
T1 construct: purchased Millipore KinaseProfiler (kinases); Cerep (receptors and ion channels)

[2] = molecular target: T2, PKCMU (Homo sapiens, UniProt Q15139); experiment: Millipore kinase panel; assay type: biochemical; settings: read-out: % Control
T2 construct: purchased Millipore KinaseProfiler (kinases); Cerep (receptors and ion channels)

[3] = molecular target: T3, VRK2 (Homo sapiens, UniProt Q86Y07); experiment: Millipore kinase panel; assay type: biochemical; settings: read-out: % Control
T3 construct: purchased Millipore KinaseProfiler (kinases); Cerep (receptors and ion channels)

[4] = molecular target: T4, PLK1 (Homo sapiens, UniProt P53350); experiment: Millipore kinase panel; assay type: biochemical; settings: read-out: % Control
T4 construct: purchased Millipore KinaseProfiler (kinases); Cerep (receptors and ion channels)

[5] = molecular target: T5, PIM-3 (Homo sapiens, UniProt Q86V86); experiment: Millipore kinase panel; assay type: biochemical; settings: read-out: % Control
T5 construct: purchased Millipore KinaseProfiler (kinases); Cerep (receptors and ion channels)

[6] = molecular target: T6, JAK2 (Homo sapiens, UniProt O60674); experiment: Millipore kinase panel; assay type: biochemical; settings: read-out: % Control
T6 construct: purchased Millipore KinaseProfiler (kinases); Cerep (receptors and ion channels)

[7] = molecular target: T7, MUSK (Homo sapiens, UniProt O15146); experiment: Millipore kinase panel; assay type: biochemical; settings: read-out: % Control
T7 construct: purchased Millipore KinaseProfiler (kinases); Cerep (receptors and ion channels)

[8] = molecular target: T8, 5-HT7 (h) (Homo sapiens, UniProt P34969); experiment: CEREP binding panel; settings: agonist radioligand, read-out: % Inhibition of Control Specific Binding
T8 construct: purchased Millipore KinaseProfiler (kinases); Cerep (receptors and ion channels)

[9] = molecular target: T9, PAK4 (Homo sapiens, UniProt O96013); experiment: Millipore kinase panel; assay type: biochemical; settings: read-out: % Control
T9 construct: purchased Millipore KinaseProfiler (kinases); Cerep (receptors and ion channels)

[10] = molecular target: T10, WNK2 (Homo sapiens, UniProt Q9Y3S1); experiment: Millipore kinase panel; assay type: biochemical; settings: read-out: % Control
T10 construct: purchased Millipore KinaseProfiler (kinases); Cerep (receptors and ion channels)

[11] = molecular target: T11, TIE2 (Homo sapiens, UniProt Q02763); experiment: Millipore kinase panel; assay type: biochemical; settings: read-out: % Control
T11 construct: purchased Millipore KinaseProfiler (kinases); Cerep (receptors and ion channels)

[12] = tested on: α2 (non-selective); experiment: CEREP binding panel; settings: 10 μM, antagonist radioligand
[13] = molecular target: T12, SRC (Homo sapiens, UniProt P12931); experiment: Millipore kinase panel; assay type: biochemical; settings: read-out: % Control
T12 construct: purchased Millipore KinaseProfiler (kinases); Cerep (receptors and ion channels)

[14] = molecular target: T13, TSSK1 (Homo sapiens, UniProt Q9BXA7); experiment: Millipore kinase panel; assay type: biochemical; settings: read-out: % Control
T13 construct: purchased Millipore KinaseProfiler (kinases); Cerep (receptors and ion channels)

[15] = molecular target: T14, CAMKIV (Homo sapiens, UniProt Q16566); experiment: Millipore kinase panel; assay type: biochemical; settings: read-out: % Control
T14 construct: purchased Millipore KinaseProfiler (kinases); Cerep (receptors and ion channels)
T14 sequence (Q16566 whole entry): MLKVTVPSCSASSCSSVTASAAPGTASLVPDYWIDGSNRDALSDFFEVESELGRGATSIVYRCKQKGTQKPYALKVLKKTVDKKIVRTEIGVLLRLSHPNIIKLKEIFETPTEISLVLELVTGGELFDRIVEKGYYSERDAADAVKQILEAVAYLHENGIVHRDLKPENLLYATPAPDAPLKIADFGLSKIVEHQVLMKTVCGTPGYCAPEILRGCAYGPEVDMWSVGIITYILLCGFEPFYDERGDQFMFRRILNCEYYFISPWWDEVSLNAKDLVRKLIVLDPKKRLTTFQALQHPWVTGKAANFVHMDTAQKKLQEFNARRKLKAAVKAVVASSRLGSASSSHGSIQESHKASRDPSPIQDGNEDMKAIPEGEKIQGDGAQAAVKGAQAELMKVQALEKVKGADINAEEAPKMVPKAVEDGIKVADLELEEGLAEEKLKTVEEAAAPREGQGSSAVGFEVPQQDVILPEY

[16] = tested on: MKK4; experiment: Millipore kinase panel; assay type: biochemical; settings: 1 μM, ATP at Km
[17] = molecular target: T15, SGK2 (Homo sapiens, UniProt Q9HBY8); experiment: Millipore kinase panel; assay type: biochemical; settings: read-out: % Control
T15 construct: purchased Millipore KinaseProfiler (kinases); Cerep (receptors and ion channels)
T15 sequence (Q9HBY8 whole entry): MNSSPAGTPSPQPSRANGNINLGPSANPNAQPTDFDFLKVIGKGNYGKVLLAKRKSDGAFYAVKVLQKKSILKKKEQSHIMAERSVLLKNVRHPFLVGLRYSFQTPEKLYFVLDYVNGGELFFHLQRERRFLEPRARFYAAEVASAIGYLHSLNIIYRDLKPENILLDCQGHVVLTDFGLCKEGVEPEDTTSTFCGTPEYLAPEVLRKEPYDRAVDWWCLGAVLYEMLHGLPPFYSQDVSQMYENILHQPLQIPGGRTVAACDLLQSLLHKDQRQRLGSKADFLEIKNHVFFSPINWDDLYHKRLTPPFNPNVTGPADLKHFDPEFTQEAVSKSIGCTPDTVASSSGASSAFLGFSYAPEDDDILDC

[18] = molecular target: T16, CCK1 (CCKA) (h) (Homo sapiens, UniProt P32238); experiment: CEREP binding panel; settings: agonist radioligand, read-out: % Inhibition of Control Specific Binding
T16 construct: purchased Millipore KinaseProfiler (kinases); Cerep (receptors and ion channels)
T16 sequence (P32238 whole entry): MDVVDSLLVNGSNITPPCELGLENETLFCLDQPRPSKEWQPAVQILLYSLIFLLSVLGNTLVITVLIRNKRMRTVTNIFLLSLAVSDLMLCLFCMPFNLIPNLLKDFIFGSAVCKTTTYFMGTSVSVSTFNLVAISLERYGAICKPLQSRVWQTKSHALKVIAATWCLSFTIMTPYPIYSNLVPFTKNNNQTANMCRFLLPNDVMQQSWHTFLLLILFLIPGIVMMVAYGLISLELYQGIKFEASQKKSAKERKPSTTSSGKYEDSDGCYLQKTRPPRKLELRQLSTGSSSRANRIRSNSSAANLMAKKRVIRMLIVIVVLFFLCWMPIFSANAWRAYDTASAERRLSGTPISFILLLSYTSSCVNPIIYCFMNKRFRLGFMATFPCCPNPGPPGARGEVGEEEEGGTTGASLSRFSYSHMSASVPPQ

[19] = molecular target: T17, FMS (Homo sapiens, UniProt P07333); experiment: Millipore kinase panel; assay type: biochemical; settings: read-out: % Control
T17 construct: purchased Millipore KinaseProfiler (kinases); Cerep (receptors and ion channels)
T17 sequence (P07333 20-972): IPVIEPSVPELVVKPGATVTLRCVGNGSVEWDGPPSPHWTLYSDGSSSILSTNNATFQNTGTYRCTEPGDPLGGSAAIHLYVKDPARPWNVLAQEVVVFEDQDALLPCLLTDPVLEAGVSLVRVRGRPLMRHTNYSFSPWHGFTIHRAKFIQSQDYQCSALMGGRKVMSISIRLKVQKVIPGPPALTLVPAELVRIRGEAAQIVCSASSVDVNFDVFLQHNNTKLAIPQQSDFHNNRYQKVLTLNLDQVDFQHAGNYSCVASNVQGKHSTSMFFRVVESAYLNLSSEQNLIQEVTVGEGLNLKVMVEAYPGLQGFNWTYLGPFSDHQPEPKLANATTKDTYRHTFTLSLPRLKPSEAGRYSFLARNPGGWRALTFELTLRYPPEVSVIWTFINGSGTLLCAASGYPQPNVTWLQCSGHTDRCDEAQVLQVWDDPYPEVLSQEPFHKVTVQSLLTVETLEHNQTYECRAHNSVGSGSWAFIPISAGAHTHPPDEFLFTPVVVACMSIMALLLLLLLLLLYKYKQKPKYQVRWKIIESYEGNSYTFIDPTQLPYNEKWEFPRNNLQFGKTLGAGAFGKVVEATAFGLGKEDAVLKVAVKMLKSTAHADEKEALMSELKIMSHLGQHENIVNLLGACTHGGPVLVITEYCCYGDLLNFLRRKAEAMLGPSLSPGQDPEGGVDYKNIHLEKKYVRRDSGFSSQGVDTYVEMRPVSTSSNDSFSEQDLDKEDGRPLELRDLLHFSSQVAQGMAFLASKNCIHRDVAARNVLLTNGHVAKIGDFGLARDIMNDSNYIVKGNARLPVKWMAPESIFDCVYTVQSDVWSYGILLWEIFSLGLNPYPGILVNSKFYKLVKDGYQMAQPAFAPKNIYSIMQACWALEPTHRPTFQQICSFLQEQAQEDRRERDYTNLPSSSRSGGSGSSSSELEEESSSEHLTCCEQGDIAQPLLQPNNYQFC

[20] = molecular target: T18, A3 (h) (Homo sapiens, UniProt P0DMS8); experiment: CEREP binding panel; settings: agonist radioligand, read-out: % Inhibition of Control Specific Binding
T18 construct: purchased Millipore KinaseProfiler (kinases); Cerep (receptors and ion channels)

[21] = molecular target: T19, TLK2 (Homo sapiens, UniProt Q86UE8); experiment: Millipore kinase panel; assay type: biochemical; settings: read-out: % Control
T19 construct: purchased Millipore KinaseProfiler (kinases); Cerep (receptors and ion channels)

[22] = molecular target: T20, AXL (Homo sapiens, UniProt P30530); experiment: Millipore kinase panel; assay type: biochemical; settings: read-out: % Control
T20 construct: purchased Millipore KinaseProfiler (kinases); Cerep (receptors and ion channels)

[23] = molecular target: T21, LIMK1 (Homo sapiens, UniProt P53667); experiment: Millipore kinase panel; assay type: biochemical; settings: read-out: % Control
T21 construct: purchased Millipore KinaseProfiler (kinases); Cerep (receptors and ion channels)

[24] = molecular target: T22, KDR (Homo sapiens, UniProt P35968); experiment: Millipore kinase panel; assay type: biochemical; settings: read-out: % Control
T22 construct: purchased Millipore KinaseProfiler (kinases); Cerep (receptors and ion channels)

[25] = molecular target: T23, SNK (Homo sapiens, UniProt Q9NYY3); experiment: Millipore kinase panel; assay type: biochemical; settings: read-out: % Control
T23 construct: purchased Millipore KinaseProfiler (kinases); Cerep (receptors and ion channels)

[26] = molecular target: T24, CKIT (Homo sapiens, UniProt P10721); experiment: Millipore kinase panel; assay type: biochemical; settings: read-out: % Control
T24 construct: purchased Millipore KinaseProfiler (kinases); Cerep (receptors and ion channels)

[27] = molecular target: T25, FLT4 (Homo sapiens, UniProt P35916); experiment: Millipore kinase panel; assay type: biochemical; settings: read-out: % Control
T25 construct: purchased Millipore KinaseProfiler (kinases); Cerep (receptors and ion channels)

[28] = tested on: BLK; experiment: Millipore kinase panel; assay type: biochemical; settings: 1 μM, ATP at Km
[29] = molecular target: T26, JNK2ALPHA2 (Homo sapiens, UniProt P45984); experiment: Millipore kinase panel; assay type: biochemical; settings: read-out: % Control
T26 construct: purchased Millipore KinaseProfiler (kinases); Cerep (receptors and ion channels)

[30] = molecular target: T27, LKB1 (Homo sapiens, UniProt Q15831); experiment: Millipore kinase panel; assay type: biochemical; settings: read-out: % Control
T27 construct: purchased Millipore KinaseProfiler (kinases); Cerep (receptors and ion channels)

[31] = molecular target: T28, EPHB2 (Homo sapiens, UniProt P29323); experiment: Millipore kinase panel; assay type: biochemical; settings: read-out: % Control
T28 construct: purchased Millipore KinaseProfiler (kinases); Cerep (receptors and ion channels)

[32] = molecular target: T29, PAR-1BALPHA (Homo sapiens, UniProt Q7KZI7); experiment: Millipore kinase panel; assay type: biochemical; settings: read-out: % Control
T29 construct: purchased Millipore KinaseProfiler (kinases); Cerep (receptors and ion channels)

[33] = molecular target: T30, PDGFRALPHA (Homo sapiens, UniProt P16234); experiment: Millipore kinase panel; assay type: biochemical; settings: read-out: % Control
T30 construct: purchased Millipore KinaseProfiler (kinases); Cerep (receptors and ion channels)

[34] = molecular target: T31, β2 (h) (Homo sapiens, UniProt P07550); experiment: CEREP binding panel; settings: agonist radioligand, read-out: % Inhibition of Control Specific Binding
T31 construct: purchased Millipore KinaseProfiler (kinases); Cerep (receptors and ion channels)

[35] = molecular target: T32, MEK1 (Homo sapiens, UniProt Q02750); experiment: Millipore kinase panel; assay type: biochemical; settings: read-out: % Control
T32 construct: purchased Millipore KinaseProfiler (kinases); Cerep (receptors and ion channels)

[36] = molecular target: T33, MARK1 (Homo sapiens, UniProt Q9P0L2); experiment: Millipore kinase panel; assay type: biochemical; settings: read-out: % Control
T33 construct: purchased Millipore KinaseProfiler (kinases); Cerep (receptors and ion channels)
T33 sequence (Q9P0L2 whole entry): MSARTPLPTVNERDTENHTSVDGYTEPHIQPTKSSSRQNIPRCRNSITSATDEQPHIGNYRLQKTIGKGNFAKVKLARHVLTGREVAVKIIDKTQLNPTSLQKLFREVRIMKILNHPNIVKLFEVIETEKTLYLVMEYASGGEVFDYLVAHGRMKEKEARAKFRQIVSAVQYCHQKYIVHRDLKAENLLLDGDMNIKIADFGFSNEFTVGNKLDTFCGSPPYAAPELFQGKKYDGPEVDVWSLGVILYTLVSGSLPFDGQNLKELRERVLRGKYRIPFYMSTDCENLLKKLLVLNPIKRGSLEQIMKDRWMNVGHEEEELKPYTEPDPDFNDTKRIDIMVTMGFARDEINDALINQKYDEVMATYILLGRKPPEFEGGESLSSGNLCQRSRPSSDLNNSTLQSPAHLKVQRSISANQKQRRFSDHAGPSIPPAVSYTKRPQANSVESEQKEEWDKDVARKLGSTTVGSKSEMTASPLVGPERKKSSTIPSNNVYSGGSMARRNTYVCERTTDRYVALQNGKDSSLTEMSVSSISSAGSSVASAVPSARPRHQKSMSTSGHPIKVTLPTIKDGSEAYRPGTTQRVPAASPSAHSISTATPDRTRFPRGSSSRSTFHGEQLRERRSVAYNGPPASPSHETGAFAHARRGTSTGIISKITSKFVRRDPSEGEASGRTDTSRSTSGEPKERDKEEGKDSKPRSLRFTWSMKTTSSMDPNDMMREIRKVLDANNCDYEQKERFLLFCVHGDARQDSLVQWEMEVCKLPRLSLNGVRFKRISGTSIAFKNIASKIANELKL

[37] = molecular target: T34, VPAC1 (VIP1) (h) (Homo sapiens, UniProt P32241); experiment: CEREP binding panel; settings: agonist radioligand, read-out: % Inhibition of Control Specific Binding
T34 construct: purchased Millipore KinaseProfiler (kinases); Cerep (receptors and ion channels)
T34 sequence (P32241 31-457): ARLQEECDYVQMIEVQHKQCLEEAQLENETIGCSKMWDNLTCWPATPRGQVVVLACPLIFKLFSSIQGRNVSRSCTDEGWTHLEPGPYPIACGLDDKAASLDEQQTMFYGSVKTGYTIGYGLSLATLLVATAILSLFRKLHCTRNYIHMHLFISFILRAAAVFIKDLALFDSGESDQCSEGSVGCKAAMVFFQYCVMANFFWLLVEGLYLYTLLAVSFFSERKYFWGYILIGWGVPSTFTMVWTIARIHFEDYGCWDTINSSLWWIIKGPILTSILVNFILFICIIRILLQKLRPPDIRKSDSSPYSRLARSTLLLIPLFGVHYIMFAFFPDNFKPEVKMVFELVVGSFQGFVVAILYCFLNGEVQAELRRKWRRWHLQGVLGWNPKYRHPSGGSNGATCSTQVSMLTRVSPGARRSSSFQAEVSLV

[38] = molecular target: T35, MNK2 (Homo sapiens, UniProt Q9HBH9); experiment: Millipore kinase panel; assay type: biochemical; settings: read-out: % Control
T35 construct: purchased Millipore KinaseProfiler (kinases); Cerep (receptors and ion channels)
T35 sequence (Q9HBH9 whole entry): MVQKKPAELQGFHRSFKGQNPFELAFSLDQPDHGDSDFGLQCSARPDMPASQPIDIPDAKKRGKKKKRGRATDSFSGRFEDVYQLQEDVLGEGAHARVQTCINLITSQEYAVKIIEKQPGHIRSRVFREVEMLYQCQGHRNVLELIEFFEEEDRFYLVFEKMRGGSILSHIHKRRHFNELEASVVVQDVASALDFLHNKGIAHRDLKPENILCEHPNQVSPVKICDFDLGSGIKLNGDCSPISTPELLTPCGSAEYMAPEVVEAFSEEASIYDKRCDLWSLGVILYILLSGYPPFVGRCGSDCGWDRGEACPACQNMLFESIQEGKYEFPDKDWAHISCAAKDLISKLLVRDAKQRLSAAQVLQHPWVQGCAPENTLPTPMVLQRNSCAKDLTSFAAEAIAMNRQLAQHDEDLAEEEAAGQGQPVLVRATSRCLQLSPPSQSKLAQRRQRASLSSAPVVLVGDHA

[39] = molecular target: T36, EEF-2K (Homo sapiens, UniProt O00418); experiment: Millipore kinase panel; assay type: biochemical; settings: read-out: % Control
T36 construct: purchased Millipore KinaseProfiler (kinases); Cerep (receptors and ion channels)

[40] = molecular target: T37, CB1 (h) (Homo sapiens, UniProt P21554); experiment: CEREP binding panel; settings: agonist radioligand, read-out: % Inhibition of Control Specific Binding
T37 construct: purchased Millipore KinaseProfiler (kinases); Cerep (receptors and ion channels)
T37 sequence (P21554 whole entry): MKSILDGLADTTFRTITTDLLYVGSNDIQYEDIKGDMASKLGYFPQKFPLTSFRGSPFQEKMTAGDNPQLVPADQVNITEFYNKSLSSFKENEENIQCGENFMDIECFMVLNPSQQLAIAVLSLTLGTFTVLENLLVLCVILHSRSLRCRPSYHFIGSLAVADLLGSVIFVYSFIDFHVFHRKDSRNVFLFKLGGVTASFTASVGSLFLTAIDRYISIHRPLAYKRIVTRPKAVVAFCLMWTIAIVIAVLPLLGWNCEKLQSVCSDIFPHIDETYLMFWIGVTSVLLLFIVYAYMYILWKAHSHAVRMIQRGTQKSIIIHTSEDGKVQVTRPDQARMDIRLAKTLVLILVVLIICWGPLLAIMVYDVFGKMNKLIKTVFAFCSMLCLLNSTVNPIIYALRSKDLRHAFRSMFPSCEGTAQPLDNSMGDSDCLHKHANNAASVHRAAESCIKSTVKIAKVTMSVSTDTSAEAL

[41] = tested on: PI3 KINASE (P110A/P85A); experiment: Millipore kinase panel; assay type: biochemical; settings: 1 μM, ATP at Km
[42] = molecular target: T38, MKK7BETA (Homo sapiens, UniProt O14733); experiment: Millipore kinase panel; assay type: biochemical; settings: read-out: % Control
T38 construct: purchased Millipore KinaseProfiler (kinases); Cerep (receptors and ion channels)

[43] = molecular target: T39, MAPKAP-K3 (Homo sapiens, UniProt Q16644); experiment: Millipore kinase panel; assay type: biochemical; settings: read-out: % Control
T39 construct: purchased Millipore KinaseProfiler (kinases); Cerep (receptors and ion channels)

[44] = molecular target: T40, CLK2 (Homo sapiens, UniProt P49760); experiment: Millipore kinase panel; assay type: biochemical; settings: read-out: % Control
T40 construct: purchased Millipore KinaseProfiler (kinases); Cerep (receptors and ion channels)
T40 sequence (P49760 whole entry): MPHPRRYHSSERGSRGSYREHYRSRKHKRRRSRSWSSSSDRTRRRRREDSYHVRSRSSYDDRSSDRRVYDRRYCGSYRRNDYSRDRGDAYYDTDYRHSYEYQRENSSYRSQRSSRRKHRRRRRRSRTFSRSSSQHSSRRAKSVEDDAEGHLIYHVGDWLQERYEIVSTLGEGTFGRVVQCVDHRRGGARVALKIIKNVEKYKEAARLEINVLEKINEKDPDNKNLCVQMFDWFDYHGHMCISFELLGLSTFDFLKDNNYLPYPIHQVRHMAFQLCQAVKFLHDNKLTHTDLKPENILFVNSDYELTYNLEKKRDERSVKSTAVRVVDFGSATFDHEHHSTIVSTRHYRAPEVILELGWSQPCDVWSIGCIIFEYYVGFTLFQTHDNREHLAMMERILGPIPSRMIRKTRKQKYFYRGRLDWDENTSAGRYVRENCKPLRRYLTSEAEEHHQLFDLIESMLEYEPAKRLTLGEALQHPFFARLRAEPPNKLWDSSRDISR

[45] = molecular target: T41, FAK (Homo sapiens, UniProt Q05397); experiment: Millipore kinase panel; assay type: biochemical; settings: read-out: % Control
T41 construct: purchased Millipore KinaseProfiler (kinases); Cerep (receptors and ion channels)

O=C1NCCC12CCN(c1c(Cl)cncc1-c1ccc(N3CCOCC3)cc1)CC2 [Compound 44, 8-(3-Chloro-5-(4-morpholin-4-ylphenyl)pyridin-4-yl)-2,8-diazaspiro[4.5]decan-1-one]
remaining activity at 1 µM [1]: 13%
remaining activity at 1 µM [2]: -22%
remaining activity at 1 µM [3]: -5%
remaining activity at 1 µM [4]: 14%
remaining activity at 1 µM [5]: 5%
remaining activity at 1 µM [6]: 4%
remaining activity at 1 µM [7]: 10%
inhibition at 10 µM [8]: 9%
remaining activity at 1 µM [9]: -2%
remaining activity at 1 µM [10]: -4%
remaining activity at 1 µM [11]: 19%
% Inhibition of Control Specific Binding [12]: -1%
remaining activity at 1 µM [13]: 4%
remaining activity at 1 µM [14]: 11%
remaining activity at 1 µM [15]: -8%
% Control [16]: 46%
remaining activity at 1 µM [17]: -5%
inhibition at 10 µM [18]: -16%
remaining activity at 1 µM [19]: -39%
inhibition at 10 µM [20]: -7%
remaining activity at 1 µM [21]: -12%
remaining activity at 1 µM [22]: -12%
remaining activity at 1 µM [23]: -3%
remaining activity at 1 µM [24]: 21%
remaining activity at 1 µM [25]: -5%
remaining activity at 1 µM [26]: 12%
remaining activity at 1 µM [27]: -5%
% Control [28]: 16%
remaining activity at 1 µM [29]: 9%
remaining activity at 1 µM [30]: 7%
remaining activity at 1 µM [31]: -1%
remaining activity at 1 µM [32]: -6%
remaining activity at 1 µM [33]: 2%
inhibition at 10 µM [34]: -3%
remaining activity at 1 µM [35]: -3%
remaining activity at 1 µM [36]: 4%
inhibition at 10 µM [37]: 0%
remaining activity at 1 µM [38]: 2%
remaining activity at 1 µM [39]: -8%
inhibition at 10 µM [40]: 1%
% Control [41]: 1%
remaining activity at 1 µM [42]: 17%
remaining activity at 1 µM [43]: -3%
remaining activity at 1 µM [44]: -10%
remaining activity at 1 µM [45]: -14%
